Results taken from the supplement of paper PMC10307832.

Columns and labels:
Test in all cases: relative viability (nuclei count vs DMSO), 5 days (fraction); higher = more cells survive
[1] = compound: CS(=O)(=O)N1CCN(Cc2cc3nc(-c4cccc5[nH]ncc45)nc(N4CCOCC4)c3s2)CC1 [Pictilisib] + CC(=O)Nc1cccc(-n2c(=O)n(C3CC3)c(=O)c3c(Nc4ccc(I)cc4F)n(C)c(=O)c(C)c32)c1 [Trametinib] (partner 0.02 µM)
Summary of the method: (§1)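 Lung cancer cell lines were seeded in 1536-well plates and dosed by pin tool the next day, with either a single drug or a fixed anchor-drug dose combined with five library-drug doses (not always all listed) spaced in √10 steps. Five days later, one step fixed the cells and stained their nuclei (final 0.05% Triton X-100, 1% formaldehyde, 1 ug/ml Hoechst), and nuclei were counted on 4× images. Relative viability is the nuclei count in treated wells divided by the count in vehicle wells, and each value is the median of duplicate plates.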

[2] = compound: CS(=O)(=O)N1CCN(Cc2cc3nc(-c4cccc5[nH]ncc45)nc(N4CCOCC4)c3s2)CC1 [Pictilisib] + Nc1nc2[nH]cc(CCc3ccc(C(=O)N[C@@H](CCC(=O)O)C(=O)O)cc3)c2c(=O)[nH]1 [Pemetrexed] (partner 0.2 µM)
Summary of the method: as §1

[3] = compound: NC1(c2ccc(-c3nc4ccn5c(=O)[nH]nc5c4cc3-c3ccccc3)cc2)CCC1 [MK-2206] + CC(C)C[C@H](NC(=O)[C@H](Cc1ccccc1)NC(=O)c1cnccn1)B(O)O [Bortezomib] (partner 0.002 µM)
Summary of the method: as §1

[4] = compound: NC1(c2ccc(-c3nc4ccn5c(=O)[nH]nc5c4cc3-c3ccccc3)cc2)CCC1 [MK-2206] + CS(=O)(=O)CCNCc1ccc(-c2ccc3ncnc(Nc4ccc(OCc5cccc(F)c5)c(Cl)c4)c3c2)o1 [Lapatinib] (partner 2 µM)
Summary of the method: as §1

[5] = compound: NC1(c2ccc(-c3nc4ccn5c(=O)[nH]nc5c4cc3-c3ccccc3)cc2)CCC1 [MK-2206] + C[C@]1(O)C[C@@H](c2nc(-c3ccc4ccc(-c5ccccc5)nc4c3)c3c(N)nccn32)C1 [Linsitinib] (partner 1 µM)
Summary of the method: as §1

| Cell Line | relative viability ([1]; first compound 0.02 µM) | relative viability ([1]; first compound 0.06325 µM) | relative viability ([1]; first compound 0.6325 µM) | relative viability ([1]; first compound 2 µM) | relative viability ([2]; first compound 0.02 µM) | relative viability ([2]; first compound 0.06325 µM) | relative viability ([2]; first compound 0.6325 µM) | relative viability ([2]; first compound 2 µM) | relative viability ([3]; first compound 0.01 µM) | relative viability ([3]; first compound 0.03162 µM) | relative viability ([3]; first compound 0.3162 µM) | relative viability ([3]; first compound 1 µM) | relative viability ([4]; first compound 0.01 µM) | relative viability ([4]; first compound 0.03162 µM) | relative viability ([4]; first compound 0.3162 µM) | relative viability ([4]; first compound 1 µM) | relative viability ([5]; first compound 0.01 µM) | relative viability ([5]; first compound 0.03162 µM) | relative viability ([5]; first compound 0.3162 µM) | relative viability ([5]; first compound 1 µM) |
| --- | --- | --- | --- | --- | --- | --- | --- | --- | --- | --- | --- | --- | --- | --- | --- | --- | --- | --- | --- | --- |
| NCI-H1651 | 0.753 | 0.825 | 0.7 | 0.656 | 0.516 | 0.591 | 0.519 | 0.38 | 0.881 | 0.903 | 1.02 | 0.947 | 0.878 | 0.743 | 0.99 | 0.606 | 0.906 | 0.915 | 0.874 | 0.937 |
| HCC-366 | 0.374 | 0.2 | 0.157 | 0.0661 | 0.172 | 0.195 | 0.248 | 0.122 | 1.01 | 0.982 | 1.04 | 1.02 | 1.05 | 1.09 | 1.08 | 1.16 | 0.637 | 0.675 | 0.364 | 0.384 |
| EKVX | 0.424 | 0.287 | 0.268 | 0.193 | 0.371 | 0.354 | 0.366 | 0.221 | 0.996 | 1.21 | 0.705 | 0.649 | 0.2 | 0.207 | 0.17 | 0.179 | 0.96 | 1.09 | 0.846 | 0.801 |
| NCI-H1993 | 0.543 | 0.469 | 0.523 | 0.488 | 0.608 | 0.605 | 0.449 | 0.442 | 1.08 | 1.2 | 0.769 | 0.613 | 0.869 | 0.83 | 0.749 | 0.758 | 0.681 | 0.811 | 0.704 | 0.71 |
| NCI-H23 | 0.367 | 0.319 | 0.241 | 0.163 | 0.618 | 0.757 | 0.5 | 0.374 | 0.906 | 1.04 | 0.91 | 0.975 | 0.982 | 0.98 | 1.16 | 1.1 | 0.583 | 0.625 | 0.58 | 0.628 |
| HCC-827 | 0.519 | 0.422 | 0.378 | 0.235 | 0.265 | 0.28 | 0.196 | 0.221 | 0.98 | 1.06 | 1.09 | 1.03 | 0.173 | 0.193 | 0.205 | 0.179 | 1.01 | 0.989 | 0.982 | 0.914 |
| PC-3 [JPC-3] | 0.727 | 0.658 | 0.586 | 0.433 | 1.22 | 1.24 | 0.872 | 0.579 | 0.812 | 0.94 | 0.841 | 0.805 | 0.469 | 0.457 | 0.437 | 0.441 | 1.01 | 0.938 | 0.91 | 0.97 |
| NCI-H1355 | 0.4 | 0.343 | 0.295 | 0.198 | 1.02 | 1.05 | 1.08 | 0.478 | 1.22 | 1.25 | 1.07 | 1.14 | 0.97 | 1.04 | 0.851 | 0.743 | 0.768 | 0.805 | 0.726 | 0.786 |
